Source: EP0215956A1, “COMPOSITION FOR TREATING SKIN DISEASE” (priority 1985, dated 1986)

Experiments:
[1] = system: psoriasis vulgaris; test: Peroral administration to patients with psoriasis vulgaris (case reports); assay type: in vivo, human; conditions: for psoriasis vulgaris severity: 0.75 µg per day orally
Description: In order to treat this disease, 0.75 µg of la-hydroxyvitamin D3 was orally administered per day.
This patient had been suffering from psoriasis vulgaris for one year, during which period they were under therapy involving external use of corticosteroid. […] Thereafter, the external use of corticosteroid was suspended and only la-hydroxyvitamin D3 was kept administered perorally.
After suspending the external use of corticosteroid, peroral administration of la-hydroxyvitamin D3 in a daily dose of 1 µg was initiated.
This patient had been suffering from psoriasis vulgaris for 2 years.

[2] = system: patients; conditions: human, in vivo, po
Source text: the six patients under therapy by oral administration of la-dihydroxyvitamin D3 and the one patient receiving orally administered la,25-dihydroxyvitamin D3 were subjected to the following analyses, tests and measurements at intervals of twice a month in the first two months of administration and once a month in the subsequent period: blood analysis for determining the number of erythrocytes, the number of platelets and the percentage of leucocytes; urine analysis for determining the levels of urinary protein, glucose, pH, acetone and urobilinogen and the presence of occult blood; testing liver functions by determining the levels of blood GOT, GPT and total bilirubin; testing kidney functions by determining the levels of blood creatinine and BUN; and the measurement of blood calcium and inorganic phosphate levels.

[3] = Acute toxicity test (LD50), mice; conditions: mouse, in vivo, 5-week-old ddY mice, Litchfield-Wilcoxon method
Description: (§1) Acute toxicity of la-hydroxyvitamin D3 was evaluated by its peroral and subcutaneous administration to mice and rats.

[4] = Acute toxicity test (LD50), rats; conditions: rat, in vivo, 5-week-old SD-TCL rats, Litchfield-Wilcoxon method
Description: as §1

[5] = patient, daily dose of 1 µg perorally, two months, external corticosteroid suspended

C=C1/C(=C\C=C2/CCC[C@]3(C)[C@@H]([C@H](C)CCCC(C)(C)O)CC[C@@H]23)C[C@@H](O)C[C@@H]1O [la,25-dihydroxyvitamin D3]
dermal lesion condition ([1]; patient, daily dose of 0.5 µg perorally, three months, diminished rashes and flares): moderate improvement in the dermal lesion condition | abnormal subjective symptom or objective sign [2]: Not a single patient under therapy had any abnormal subjective symptom or objective sign | change of blood, urine, liver function, kidney function, blood calcium and inorganic phosphate parameters from values prior to treatment [2]: None of the parameters analyzed showed any abnormal change

C=C1/C(=C\C=C2/CCC[C@]3(C)[C@@H]([C@H](C)CCCC(C)C)CC[C@@H]23)C[C@@H](O)C[C@@H]1O [la-hydroxyvitamin D3, 1α-hydroxyvitamin D3]
dermal lesion condition ([1]; patient (psoriasis for 6 years), daily dose of 1 µg perorally, three months): moderate improvement in the dermal lesion condition | dermal lesion condition ([1]; patient (psoriasis for 25 years), daily dose of 1 µg perorally, three months): moderate improvement in the dermal lesion condition | psoriasis vulgaris severity ([1]; patient, a half month after the two months and a half): virtually disappeared | psoriasis vulgaris severity ([1]; patient, two months and a half after start): dramatically diminished in severity | dermal lesion condition ([1]; patient, 1.0 µg per day orally, four months later, with external corticosteroid, slight loss of dermal pigment remained): improved pronouncedly | dermal lesion condition ([1]; patient, 1.0 µg per day orally, two months after start, with external corticosteroid): a sign of improvement in the dermal lesion condition | dermal lesion condition ([1]; patient, daily dose of 1 µg orally, two months after start): diminished by a small degree | dermal lesion condition ([1]; patient, daily dose of 1 µg orally, two more months later): pronounced improvement in the condition | condition of the lesion elsewhere on the body [1, 5]: improved markedly | dermal lesion on the soles [1, 5]: disappeared | dermal lesion condition ([1]; patient, peroral only, external corticosteroid suspended, six months later): completely cured | maintenance of improvement ([1]; patient, subsequent peroral daily dose of 0.5 ug): improvement could be maintained | LD50 ([3]; po, Peroral, female): 0.71 mg/kg | LD50 ([3]; po, Peroral, male): 0.68 mg/kg | LD50 ([3]; sc, subcutaneous, female): 0.058 mg/kg | LD50 ([3]; sc, subcutaneous, male): 0.055 mg/kg | LD50 ([4]; po, Peroral, female): 0.743 mg/kg | LD50 ([4]; po, Peroral, male): 0.62 mg/kg | LD50 ([4]; sc, subcutaneous, female): 0.04 mg/kg | LD50 ([4]; sc, subcutaneous, male): 0.056 mg/kg | abnormal subjective symptom or objective sign [2]: Not a single patient under therapy had any abnormal subjective symptom or objective sign | change of blood, urine, liver function, kidney function, blood calcium and inorganic phosphate parameters from values prior to treatment [2]: None of the parameters analyzed showed any abnormal change
